Data: paper PMC5397059, “Design, synthesis and structure-activity relationship study of wollamide B; a new potential anti TB agent” (PLoS ONE, 2017)
Values after ≈ are worked out from the molar mass of the structure shown. Read-outs that look alike come from different tables or passages of the source. Non-standard residues stand in square brackets, D forms with d. Residues, ends and D or L forms follow the SMILES beside them. *: point of attachment. dPhe(4-Cl) = N[C@H](Cc1ccc(Cl)cc1)C(=O)O; NMeN = CN[C@@H](CC(N)=O)C(=O)O; NMeL = CN[C@@H](CC(C)C)C(=O)O; dNMeL = CN[C@H](CC(C)C)C(=O)O; NMeV = CN[C@H](C(=O)O)C(C)C; dOrn = NCCC[C@@H](N)C(=O)O; tBu = CC(C)(C)*

Tests used:
[1] = Chemi-Luminescent Nitrogen Detection (CLND) kinetic solubility assay; format: physicochemical; settings: phosphate buffered saline, pH 7.4; kinetic aqueous solubility by CLND; read-out: Solubility
Protocol: GSK in-house kinetic solubility assay: 5 μL of 10mM DMSO stock solution diluted to 100 uL with pH7.4 phosphate buffered saline, equilibrated for 1 hour at room temperature, filtered through Millipore Multiscreen HTS-PCF filter plates (MSSL BPC).
The filtrate is quantified by suitably calibrated flow injection CLND. The standard error of the CLND solubility determination is ±30 μM, the upper limit of the solubility is 500 μM when working from 10 mM DMSO stock solution.

Chrom logD assay = format: physicochemical; settings: pH 7.4, read-out: Log D
Protocol: The Chromatographic Hydrophobicity Index (CHI) values were measured using a reversed phase HPLC column (50 x 2 mmx 3 μMGemini NX C18, Phenomenex, UK) with fast acetonitrile gradient at starting mobile phase of 100% pH = 7.4 buffer. CHI values are derived directly from the gradient retention times by using a calibration line obtained for standard compounds. The CHI value approximates to the volume % organic concentration when the compound elutes. CHI is linearly transformed into ChromlogD by the formula: ChromlogD=0.0857CHI−2.00
The average error of the assay is ±3 CHI unit or ±0.25 ChromlogD.

[2] = Artificial membrane permeability assay; format: in vitro ADME; settings: PAMPA, pH 7.4; passive artificial membrane permeability; read-out: Permeability
Protocol: A 8% L-a-phosphatidylcholine (EPC) in 1% cholesterol decane solution and a 1.8% EPC in cholesterol decane solution were prepared. The lipid solution was then aliquoted into 4 mL capped vials, sealed with parafilm and stored in-20°Cfreezer. The lipid solution was then transferred from 4 mL vial into 96-well half area plate (130μL/well) for daily assay usage. An additional 50 mM phosphate buffer with 0.5% encapsin, pH at 7.4 was prepared. The assay was run by the Biomek FX and Biomek software. The assay procedure is written under the Biomek software. For one batch assay, it can test two 96-well sample plates with at least one standard on each sample plate. The total assay time was about 4 hours. 3.5 μL of lipid solution were added to the filler plate, shaken for 12 seconds, and 250 μL of buffer were added to donor side and 100 μL to the receiver side. The assay plate was shaken for 45 min before adding the compounds. The test compounds (2.5 μL) were added to the donor side. The assay was run as replicates: Assay plates1 and 2 tested the sample plate 1; assay plates 3 and 4 tested the sample plate 2. The assay plates were then incubated and shaken for 3 hours at room temperature.
The assay samples were transferred to the HPLC analysis plates and 100 μL of receiver solution were aspirated and transferred to the receiver for analysis. Similarly, another 100 μL from the donor solution were transferred to the donor analysis plate.
Compound concentration was measured by HPLC at different time-points and permeability was established as nm/sec.

human serum albumin = human serum albumin (Homo sapiens, UniProt P02768); assay: Human serum albumin (HSA) binding assay; format: in vitro ADME; settings: human serum albumin binding
Sequence of human serum albumin (P02768 25-609): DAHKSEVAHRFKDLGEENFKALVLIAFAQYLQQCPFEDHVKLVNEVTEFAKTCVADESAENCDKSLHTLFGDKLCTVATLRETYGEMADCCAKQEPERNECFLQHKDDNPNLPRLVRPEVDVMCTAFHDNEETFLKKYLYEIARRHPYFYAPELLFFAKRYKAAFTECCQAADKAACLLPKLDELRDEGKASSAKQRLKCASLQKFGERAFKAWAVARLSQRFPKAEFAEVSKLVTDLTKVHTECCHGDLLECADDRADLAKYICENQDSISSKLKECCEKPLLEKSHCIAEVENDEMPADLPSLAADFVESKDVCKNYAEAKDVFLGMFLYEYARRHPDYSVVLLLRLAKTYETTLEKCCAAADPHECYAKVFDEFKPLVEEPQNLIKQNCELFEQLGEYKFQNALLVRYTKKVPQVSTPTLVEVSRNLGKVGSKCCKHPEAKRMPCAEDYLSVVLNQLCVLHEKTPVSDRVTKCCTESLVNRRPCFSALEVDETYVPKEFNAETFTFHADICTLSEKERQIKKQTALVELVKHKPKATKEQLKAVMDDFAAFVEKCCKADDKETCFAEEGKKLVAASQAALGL
Protocol: HSA binding assay was performed according to the method described by Valko K, et al. The basic principle of the measurements is the determination of gradient retention times of compounds on immobilized HSA column and converting these retention times to the appropriate property values using calibration. The peaks are detected and identified by UV. Calibration sets of compounds are measured before each run for which the HSA binding values are known. The retention times of the calibration set of compounds are plotted against these known values. The slope and the intercept of the obtained straight lines are used to calculate the HSA binding for the unknown compounds.

[3] = Intrinsic clearance (CLint) assay, mouse liver microsomes; format: in vitro ADME; settings: for % LBF Mouse: liver blood flow; for CLint Mouse: mouse liver microsomes; for half-life at 0.5 µM: mouse, pooled mouse liver microsomes, pH 7.4, read-out: Microsomal t1/2 Mouse; for CLpred Mouse: predicted metabolic clearance
Protocol: (§1) Pooled mouse and human liver microsomes are purchased from Xenotech. Microsomes (final protein concentration 0.5 mg/mL, MgCl2 (final concentration = 5 mM) and test compound (final substrate concentration = 0.5] M; final DMSO concentration = 0.5%) in 0.1 M phosphate buffer pH 7.4 are pre-incubated at 37°C prior to the addition of NADPH (final concentration = 1 mM) to initiate the reaction. The final incubation volume is 600 μL.
(§2) Control incubation is included for each compound tested where 0.1 M phosphate buffer pH 7.4 is added instead of NADPH (minus NADPH). One control compound is included with each species. All incubations are performed singularly for each test compound. Each compound is incubated for 45 minutes and samples (100 μL) of incubate are taken at 0, 5, 15, 30 and 45 min. The control (minus NADPH) is sampled at 30 min only. The reactions are stopped by the addition of sample to 200 μL Acetonitrile: Methanol 3:1 containing internal standard. The terminated samples are centrifuged at 2,500 rpm for 20 min at 4°C to precipitate the protein. Quantitative analysis: following protein precipitation, the samples were analyzed using specific LC-MS/MS conditions. Data analysis: from a plot of ln peak area ratio (compound peak area/internal standard peak area) against time, the gradient of the line was determined. Subsequently, half-life and intrinsic clearance were calculated using the equations below: Eliminationrateconstant(K)=(−gradient) Halflife(t1/2)(min)=0.693/K Cli(mL/min/gprotien)=V×0.693/t1/2 WhereV=Incubationvolume(mL/gmicrosomalprotien)

[4] = Intrinsic clearance (CLint) assay, human liver microsomes; format: in vitro ADME; settings: for CLint Human: human liver microsomes; for half-life at 0.5 µM: human, pooled human liver microsomes, pH 7.4, human liver microsomes, read-out: Microsomal t1/2 Human; for % LBF Human: liver blood flow; for CLpred Human: predicted metabolic clearance
Protocol: as §1, §2

Mtb H37Rv = settings: duplicate; analogues
[5] = reversed phase HPLC column (Gemini NX C18)

SMILES | solubility kinetic at 1 h [1] | chromatographic logD (Chrom logD assay; [5]) | Papp at 3 h [2] | % HSA (human serum albumin) | % LBF Mouse [3] | CLint Mouse [3] | half-life at 0.5 µM [3] | CLpred Mouse [3] | CLint Human [4] | half-life at 0.5 µM [4] | % LBF Human [4] | CLpred Human [4] | chromatographic logD (Chrom logD assay) | MIC against Mtb H37Rv (Mtb H37Rv)
CC[C@H](C)[C@@H]1NC(=O)[C@@H](CC(C)C)NC(=O)[C@H](CC(C)C)NC(=O)[C@H](Cc2c[nH]c3ccccc23)NC(=O)[C@@H](CCCN)NC(=O)[C@H](CO)NC1=O [Compound 10c] (cyclo(IS[dOrn]WL[dL])) | ≥ 228 µg/mL | 2.16 | < 1 ×10⁻⁶ cm/s | 86.47% | <16.3% | <0.48 mL/min/g tissue | > 2.31 h | <20.50 mL/min/kg | 9.77 mL/min/g tissue | 0.0938 h | 93.00% | 16.70 mL/min/kg |  | 
CC[C@H](C)[C@@H]1NC(=O)[C@@H](CC(C)C)NC(=O)[C@H](CC(C)C)NC(=O)[C@H](Cc2c[nH]c3ccccc23)NC(=O)[C@@H](CCCN)NC(=O)[C@H](COC(C)(C)C)NC1=O [Compound 11c] (cyclo(IS(tBu)[dOrn]WL[dL])) | 202 µg/mL (≈ 258 µM) | 3 | < 0.3 ×10⁻⁶ cm/s | 92.68% | <16.3% | <0.48 mL/min/g tissue | > 2.31 h | <20.50 mL/min/kg | 3.33 mL/min/g tissue | 0.276 h | 81.90% | 14.70 mL/min/kg |  | 
CC[C@H](C)[C@@H]1NC(=O)[C@@H](CC(C)C)NC(=O)[C@H](CC(C)C)NC(=O)[C@H](Cc2c[nH]c3ccccc23)NC(=O)[C@@H](CCCNC(=N)N)NC(=O)[C@H](CC(N)=O)NC1=O [Compound 13c] (cyclo(IN[dR]WL[dL])) | ≥ 189 µg/mL |  | 1.1 ×10⁻⁶ cm/s | 87.55% | 29.00% | 1.01 mL/min/g tissue | 1.05 h | 36.60 mL/min/kg | 7.44 mL/min/g tissue | 0.123 h | 91.01% | 16.38 mL/min/kg | 2.05 | 
COc1ccc(C[C@@H]2NC(=O)[C@@H](CCCN)NC(=O)[C@H](CC(N)=O)NC(=O)[C@H](C(C)C)NC(=O)[C@@H](CC(C)C)NC(=O)[C@H](CC(C)C)NC2=O)cc1 [Compound 15c] (cyclo(L[dL]VN[dOrn]Y(Me))) | ≥ 189 µg/mL | 1.73 | < 1 ×10⁻⁶ cm/s | 46.55% | 24.00% | 0.78 mL/min/g tissue | 1.43 h | 30.20 mL/min/kg | <0.40 mL/min/g tissue | > 2.31 h | <35.08% | <6.35 mL/min/kg |  | 
CC[C@H](C)[C@@H]1NC(=O)[C@@H](Cc2ccc(Cl)cc2)NC(=O)[C@H](CC(C)C)NC(=O)[C@H](Cc2c[nH]c3ccccc23)NC(=O)[C@@H](CCCN)NC(=O)[C@@H](CCCN)NC1=O [Compound 18c] (cyclo(I[dOrn][dOrn]WL[dPhe(4-Cl)])) | 7 µg/mL (≈ 8.51 µM) |  | 8 ×10⁻⁶ cm/s | 98.70% | 28.4% | 0.98 mL/min/g tissue | 1.13 h | 35.80 mL/min/kg | 1.06 mL/min/g tissue | 0.862 h | 59.15% | 10.65 mL/min/kg |  | 17.5 µM (≈ 14.4 µg/mL)
CC(C)C[C@@H]1NC(=O)[C@H](Cc2c[nH]c3ccccc23)NC(=O)[C@@H](CCCN)NC(=O)[C@H](CC(N)=O)NC(=O)[C@H](C(C)C)N(C)C(=O)[C@@H](CC(C)C)NC1=O [Compound 22c] (cyclo(L[dL][NMeV]N[dOrn]W)) | ≥ 153 µg/mL | 1.96 | < 1 ×10⁻⁶ cm/s | 73.98% | <16.3% | <0.48 mL/min/g tissue | > 2.31 h | <20.50 mL/min/kg | <0.40 mL/min/g tissue | > 2.31 h | <35.08% | <6.35 mL/min/kg |  | 
CC(C)C[C@H]1NC(=O)[C@H](CC(C)C)N(C)C(=O)[C@H](Cc2c[nH]c3ccccc23)NC(=O)[C@@H](CCCN)NC(=O)[C@H](CC(N)=O)N(C)C(=O)[C@H](C(C)C)NC1=O [Compound 23c] (cyclo([NMeL][dL]V[NMeN][dOrn]W)) | ≥ 174 µg/mL | 2 | < 1 ×10⁻⁶ cm/s | 82.21% | 30.00% | 1.06 mL/min/g tissue | 1.05 h | 37.80 mL/min/kg | 3.19 mL/min/g tissue | 0.287 h | 81.29% | 14.63 mL/min/kg |  | 
CC(C)C[C@H]1NC(=O)[C@H](CC(C)C)N(C)C(=O)[C@H](Cc2c[nH]c3ccccc23)NC(=O)[C@@H](CCCN)NC(=O)[C@H](CC(N)=O)NC(=O)[C@H](C(C)C)N(C)C1=O [Compound 24c] (cyclo(N[dOrn]W[NMeL][dL][NMeV])) | ≥ 217 µg/mL | 2.18 | < 1 ×10⁻⁶ cm/s | 87.02% | 42.0% | 1.79 mL/min/g tissue | 0.261 h | 52.90 mL/min/kg | 3.51 mL/min/g tissue | 0.621 h | 82.70% | 14.90 mL/min/kg |  | 
CC(C)C[C@@H]1NC(=O)[C@H](Cc2c[nH]c3ccccc23)NC(=O)[C@@H](CCCN)NC(=O)[C@H](CC(N)=O)N(C)C(=O)[C@H](C(C)C)NC(=O)[C@@H](CC(C)C)N(C)C1=O [Compound 25c] (cyclo(L[dNMeL]V[NMeN][dOrn]W)) | ≥ 221 µg/mL | 2.25 | < 1 ×10⁻⁶ cm/s | 82.97% | <16.3% | <0.48 mL/min/g tissue | > 2.31 h | <20.50 mL/min/kg | <0.40 mL/min/g tissue | > 2.31 h | <35.08% | <6.35 mL/min/kg |  | 
